Reference: patent US20230374038A1, “MODULATORS OF CYSTIC FIBROSIS TRANSMEMBRANE CONDUCTANCE REGULATOR” (VERTEX PHARMACEUTICALS INCORPORATED, priority 2020, published 2023)

Target: CFTR (Homo sapiens, UniProt P13569)
Experiment: Membrane Potential Dye, Enteroid Assay B
Type: cell-based
Settings: for EC50: read-out: Ent. B EC50
Procedure, shortened: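 Human intestinal enteroids seeded at 5000 cells/well, treated with compound 18-24 h at 37 °C, then loaded 25 min with methyl oxonol membrane-potential dye plus CaCC blockers. Chloride transport started in chloride-free buffer with 10 μM forskolin, 100 μM IBMX and 300 nM Compound III, read 15 min; expressed as % of triple-combination control.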

Sequence of CFTR (P13569 with tags, fused parts or gaps DEL508-508): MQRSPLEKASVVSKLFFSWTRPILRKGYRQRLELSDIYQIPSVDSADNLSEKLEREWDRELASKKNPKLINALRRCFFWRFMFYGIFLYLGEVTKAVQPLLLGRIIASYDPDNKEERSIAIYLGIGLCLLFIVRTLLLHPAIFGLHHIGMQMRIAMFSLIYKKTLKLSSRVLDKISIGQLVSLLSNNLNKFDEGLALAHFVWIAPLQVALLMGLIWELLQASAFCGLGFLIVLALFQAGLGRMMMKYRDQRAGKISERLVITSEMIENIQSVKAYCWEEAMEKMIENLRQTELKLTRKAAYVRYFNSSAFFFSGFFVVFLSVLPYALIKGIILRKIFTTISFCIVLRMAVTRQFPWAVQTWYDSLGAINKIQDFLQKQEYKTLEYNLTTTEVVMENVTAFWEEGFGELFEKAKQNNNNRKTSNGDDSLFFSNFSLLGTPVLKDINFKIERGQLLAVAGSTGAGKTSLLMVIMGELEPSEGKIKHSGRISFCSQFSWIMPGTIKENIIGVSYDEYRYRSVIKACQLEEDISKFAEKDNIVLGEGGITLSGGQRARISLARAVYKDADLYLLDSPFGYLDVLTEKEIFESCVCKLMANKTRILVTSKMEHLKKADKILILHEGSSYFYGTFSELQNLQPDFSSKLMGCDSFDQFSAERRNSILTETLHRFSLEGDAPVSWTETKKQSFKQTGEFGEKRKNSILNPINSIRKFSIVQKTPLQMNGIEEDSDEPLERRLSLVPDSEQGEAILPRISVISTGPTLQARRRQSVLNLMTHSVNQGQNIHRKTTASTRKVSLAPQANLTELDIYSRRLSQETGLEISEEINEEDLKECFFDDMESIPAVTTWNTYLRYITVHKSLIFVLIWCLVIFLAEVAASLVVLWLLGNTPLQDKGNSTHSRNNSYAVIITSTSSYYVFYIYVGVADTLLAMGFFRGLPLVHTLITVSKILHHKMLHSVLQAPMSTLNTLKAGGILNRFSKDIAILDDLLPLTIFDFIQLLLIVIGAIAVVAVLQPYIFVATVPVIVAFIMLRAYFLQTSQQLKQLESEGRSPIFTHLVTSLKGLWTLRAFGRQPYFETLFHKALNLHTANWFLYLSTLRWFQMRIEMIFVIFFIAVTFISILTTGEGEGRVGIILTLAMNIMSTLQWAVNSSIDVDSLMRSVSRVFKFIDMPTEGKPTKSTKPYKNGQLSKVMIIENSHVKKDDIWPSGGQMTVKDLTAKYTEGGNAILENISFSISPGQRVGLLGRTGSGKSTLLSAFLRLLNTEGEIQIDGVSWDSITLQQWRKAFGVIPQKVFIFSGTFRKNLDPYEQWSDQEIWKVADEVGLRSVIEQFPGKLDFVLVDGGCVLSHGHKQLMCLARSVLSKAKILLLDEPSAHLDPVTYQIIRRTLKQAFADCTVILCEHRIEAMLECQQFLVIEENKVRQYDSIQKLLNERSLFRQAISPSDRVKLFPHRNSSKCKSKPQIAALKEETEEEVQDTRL

COc1c2nc(nc1-c1c(C)cccc1C)NS(=O)(=O)c1cccc(c1)C(=O)N(C1CC3(CC3)C1)[C@H](CC(C)C)CO2 [Compound 179]
Ent. B Max Activity: +++ (+++ is >60%) | EC50: < 1000 nM

Cc1cccc(C)c1-c1nc2nc(c1C)OC[C@@H](CC(C)(C)O)N(C1CC3(CC3)C1)C(=O)c1cccc(c1)S(=O)(=O)N2 [Compound 108, (11R)-6-(2,6-Dimethylphenyl)-11-(2-hydroxy-2-methyl-propyl)-7-methyl-2,2-dioxo-12-spiro[2.3]hexan-5-yl-9-oxa-2λ^6-thia-3,5,12,19-tetrazatricyclo[12.3.1.14,8]nonadeca-1(18),4(19),5,7,14,16-hexaen-13-one]
Ent. B Max Activity: +++ (+++ is >60%) | EC50: 1000 to 3000 nM

COC(=O)NC1CC2(C1)CC(N1C(=O)c3cccc(c3)S(=O)(=O)Nc3nc(c(C)c(-c4c(C)cccc4C)n3)OC[C@H]1CC1(C(F)(F)F)CC1)C2 (stereo in doubt) [Compound 86]
Ent. B Max Activity: +++ (+++ is >60%) | EC50: < 1000 nM

Cc1cccc(C)c1-c1nc2nc(c1C)OC[C@@H](CC(C)C)N(C1CC3(CCN(C)CC3)C1)C(=O)c1cccc(c1)S(=O)(=O)N2 [Compound 74]
Ent. B Max Activity: +++ (+++ is >60%) | EC50: < 1000 nM

Cc1cccc(C)c1-c1nc2nc(c1C)OC[C@@H](CC(C)(C)O)N(CCCC(C)(C)O)C(=O)c1cccc(c1)S(=O)(=O)N2 [Compound 110]
Ent. B Max Activity: + (+ is <30%)

COc1cccc(-c2c3nc(nc2-c2c(C)cccc2C)NS(=O)(=O)c2cccc(c2)C(=O)NC[C@@H](C)O3)c1 [Compound 122, (10R)-6-(2,6-Dimethylphenyl)-7-(3-methoxyphenyl)-10-methyl-2,2-dioxo-9-oxa-2λ^6-thia-3,5,12,19-tetrazatricyclo[12.3.1.14,8]nonadeca-1(18),4(19),5,7,14,16-hexaen-13-one]
Ent. B Max Activity: +++ (+++ is >60%) | EC50: < 1000 nM

COC(=O)NC1CC2(C1)CC(N1C(=O)c3cccc(c3)S(=O)(=O)Nc3nc(c(C)c(-c4c(C)cccc4C)n3)OC[C@H]1CC(C)(C)C)C2 (single isomer, unassigned) [Compound 61]
Ent. B Max Activity: +++ (+++ is >60%) | EC50: < 1000 nM

COC(=O)NC1CC2(C1)CC(N1C(=O)c3cccc(c3)S(=O)(=O)Nc3nc(c(C)c(-c4c(C)cccc4C)n3)OC[C@H]1CC(C)C)C2 (stereo in doubt) [Compound 69]
Ent. B Max Activity: +++ (+++ is >60%) | EC50: < 1000 nM

Cc1cccc(C)c1-c1nc2nc(c1C)OC[C@@H](CC(C)(C)C)N(C1CC3(CCN(C(=O)OC(C)C)CC3)C1)C(=O)c1cccc(c1)S(=O)(=O)N2 [Compound 77]
Ent. B Max Activity: +++ (+++ is >60%) | EC50: < 1000 nM

Cc1cccc(C)c1-c1nc2nc(c1C#N)OC[C@@H](CC(C)C)N(C1CC3(CC3)C1)C(=O)c1cccc(c1)S(=O)(=O)N2 [Compound 174]
Ent. B Max Activity: ++ (++ is 30-60%) | EC50: < 1000 nM

COC1CC(N2C(=O)c3cccc(c3)S(=O)(=O)Nc3nc(c(C)c(-c4c(C)cccc4C)n3)OC[C@H]2CC2(C(F)(F)F)CC2)C1 (some centres unmarked) [Compound 100]
Ent. B Max Activity: +++ (+++ is >60%) | EC50: < 1000 nM

Cc1cccc(C)c1-c1nc2nc(c1-c1cccnc1)O[C@H](C)CNC(=O)c1cccc(c1)S(=O)(=O)N2 [Compound 133]
Ent. B Max Activity: + (+ is <30%)

Cc1cccc(C)c1-c1nc2nc(c1C)OCCCN(C1CC3(CC(NC(=O)OC(C)(C)C)C3)C1)C(=O)c1cccc(c1)S(=O)(=O)N2 (centres unmarked) [Compound 38]
Ent. B Max Activity: + (+ is <30%) | EC50: < 1000 nM

Cc1cccc(C)c1-c1nc2nc(c1C1CCN(C(=O)OC(C)(C)C)CC1)O[C@H](C)CNC(=O)c1cccc(c1)S(=O)(=O)N2 [Compound 150]
Ent. B Max Activity: ++ (++ is 30-60%) | EC50: 1000 to 3000 nM

COCCN1CCC2(CC1)CC(N1C(=O)c3cccc(c3)S(=O)(=O)Nc3nc(c(F)c(-c4c(C)cccc4C)n3)OC[C@H]1CC(C)C)C2 [Compound 185]
Ent. B Max Activity: +++ (+++ is >60%) | EC50: < 1000 nM

Cc1cccc(C)c1-c1nc2nc(c1C)OC[C@@H](CC(C)(C)C)N(C1CC3(CC(N(C)C)C3)C1)C(=O)c1cccc(c1)S(=O)(=O)N2 (some centres unmarked) [Compound 94]
Ent. B Max Activity: +++ (+++ is >60%) | EC50: < 1000 nM

COC(=O)NC1CC2(C1)CC(N1C(=O)c3cccc(c3)S(=O)(=O)Nc3nc(c(C)c(-c4c(C)cccc4C)n3)OC[C@H]1CC(C)(C)C)C2 (single isomer, unassigned) [Compound 64]
Ent. B Max Activity: +++ (+++ is >60%) | EC50: < 1000 nM

Cc1cccc(C)c1-c1nc2nc(c1C)OC[C@@H](CC(C)(C)C)N(C1CC3(CC(NC(=O)OC(C)(C)C)C3)C1)C(=O)c1cccc(c1)S(=O)(=O)N2 (single isomer, unassigned) [Compound 59]
Ent. B Max Activity: +++ (+++ is >60%) | EC50: < 1000 nM

Cc1cccc(C)c1-c1nc2nc(c1C)OC[C@@H](CC(C)C)N(C1CC3(CCN(C(=O)OC(C)C)CC3)C1)C(=O)c1cccc(c1)S(=O)(=O)N2 [Compound 70]
Ent. B Max Activity: +++ (+++ is >60%) | EC50: < 1000 nM

Cc1cccc(C)c1-c1nc2nc(c1C)OC[C@@H](CC(C)(C)C)N(C1CC3(CCN(C(=O)OC(C)(C)C)CC3)C1)C(=O)c1cccc(c1)S(=O)(=O)N2 [Compound 82]
Ent. B Max Activity: +++ (+++ is >60%) | EC50: < 1000 nM

Cc1cccc(C)c1-c1nc2nc(c1C)OC[C@@H](CC1(C(F)(F)F)CC1)NC(=O)c1cccc(c1)S(=O)(=O)N2 [Compound 103]
Ent. B Max Activity: +++ (+++ is >60%) | EC50: < 1000 nM

Cc1cccc(C)c1-c1nc2nc(c1CCC(C)(C)C)OC[C@@H](C)NC(=O)c1cccc(c1)S(=O)(=O)N2 [Compound 125, (11R)-7-(3,3-Dimethylbutyl)-6-(2,6-dimethylphenyl)-11-methyl-2,2-dioxo-9-oxa-2λ^6-thia-3,5,12,19-tetrazatricyclo[12.3.1.14,8]nonadeca-1(18),4(19),5,7,14,16-hexaen-13-one]
Ent. B Max Activity: ++ (++ is 30-60%) | EC50: < 1000 nM

Cc1cccc(C)c1-c1nc2nc(c1-c1ccn(C)n1)O[C@H](C)CNC(=O)c1cccc(c1)S(=O)(=O)N2 [Compound 129]
Ent. B Max Activity: + (+ is <30%)

Cc1cccc(C)c1-c1nc2nc(c1C)OC[C@@H](CC(C)(C)C)N(C1CC3(CC3)C1)C(=O)c1cccc(c1)S(=O)(=O)N2 [Compound 101]
Ent. B Max Activity: +++ (+++ is >60%) | EC50: < 1000 nM

Cc1cccc(C)c1-c1nc2nc(c1C)OC[C@@H](CC(C)C)N([C@H]1C[C@@]3(C[C@H](NC(=O)OC(C)C)C3)C1)C(=O)c1cccc(c1)S(=O)(=O)N2 (single isomer, unassigned) [Compound 51]
Ent. B Max Activity: +++ (+++ is >60%) | EC50: < 1000 nM

COc1ccccc1-c1c2nc(nc1-c1c(C)cccc1C)NS(=O)(=O)c1cccc(c1)C(=O)NC[C@@H](C)O2 [Compound 131]
Ent. B Max Activity: +++ (+++ is >60%) | EC50: 1000 to 3000 nM

Cc1cccc(C)c1-c1nc2nc(c1C)OC[C@@H](CC(C)C)NC(=O)c1cccc(c1)S(=O)(=O)N2 [Compound 73]
Ent. B Max Activity: +++ (+++ is >60%) | EC50: < 1000 nM

Cc1cccc(C)c1-c1nc2nc(c1C)OC[C@@H](CC(C)C)N([C@H]1C[C@@]3(C[C@H](NC(=O)OC(C)C)C3)C1)C(=O)c1cccc(c1)S(=O)(=O)N2 (single isomer, unassigned) [Compound 52]
Ent. B Max Activity: +++ (+++ is >60%) | EC50: < 1000 nM
